From patent US5017489A (priority 1988, dated 1991) come the findings set out here.

“Also recorded” adds a separate entry of the source. Like-named read-outs stand apart in the source and are kept apart here.

Data set [1] concerns the target T1, CTL serine esterase (BLT-serine esterase) in extract of murine CTL clone G4 (Mus musculus, UniProt P11032).
T1 sequence (P11032 29-260): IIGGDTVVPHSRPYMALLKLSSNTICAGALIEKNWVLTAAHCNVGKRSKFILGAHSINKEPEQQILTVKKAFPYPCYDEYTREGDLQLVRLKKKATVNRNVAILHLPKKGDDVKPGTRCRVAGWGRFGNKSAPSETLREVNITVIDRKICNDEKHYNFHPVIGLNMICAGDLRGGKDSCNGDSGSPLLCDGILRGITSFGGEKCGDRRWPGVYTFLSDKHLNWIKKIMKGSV

The test system of data set [2] is lysis of P815 (H-2d) cells by cloned anti-Dd G4 cells.
Data set [3] concerns the target T1, CTL serine esterase (BLT-serine esterase) in extract of murine CTL clone G4. Kind of data set: biochemical. The settings on record: read-out: Percent Inhibition of esterase activity.
For the next data set, the system named is G4 cells. As to the kind of experiment: Toxicity of inhibitor for G4 cells (51Cr release, trypan blue recovery). Type of data set: cell-based, murine. The conditions noted are these: PMSF at the concentrations shown (0.375-3 mM), 3% DMSO.
Data set [4] deals with cytolytic activity of human CTLs. As to the kind of experiment: PMSF inhibition of cytolysis by human CTLs (2-h 51Cr-release assay). Type of data set: cell-based. The conditions noted are these: 15 min in 6 mM PMSF. The protocol: ^51 Cr-release killing assays were performed as described; when measuring lectin-dependent cytolytic activity, Con A (Vector Laboratories,Inc., Burlingame, CA) was added to a final concentration of 10 μg/ml.
Various numbers of T cells were incubated for 15 min at 37° C. in K medium containing PMSF at 0, 2, 4, and 6 mM (PMSF was added in DMSO; the final concentration of DMSO in all instances was 1%). Cytotoxicity was assayed as above except that a 2 hour assay was used to minimize the effect of new protein synthesis.

Data set [5] has as its system human CTLs and target cells. Kind of data set: Viability of human CTLs (trypan blue exclusion) and targets (51Cr release) after PMSF. The settings on record: 15 min in 6 mM PMSF.

aprotinin: in data set [1], the “inhibition in vitro of purified BLT serine esterase (in words)” value is recorded as “potent inhibitor” and the “inhibition of serine esterase (in words)” value is recorded as “essentially totally inhibited”. Further, in data set [2], the “inhibition of CTL-mediated lysis (in words)” value is reported as “does not inhibit” and the “inhibition of cytotoxicity (in words)” value is reported as “appears to inhibit cytotoxicity”.

As to `Cc1ccc(S(=O)(=O)N[C@@H](Cc2ccccc2)C(=O)CCl)cc1` [TPCK, N-tosyl-L-phenylalanine chloromethyl ketone], in data set [1] (murine enzyme), the “inhibition of murine CTL serine esterase activity (in words)” value is “not”.

With α2 macroglobulin, the “inhibition of serine esterase (in words)” value in data set [1] is on record as “not inhibited”.

Take `Cc1ccc(S(=O)(=O)N[C@@H](CCCCN)C(=O)CCl)cc1` [TLCK, N-α-tosyl lysyl chloromethyl ketone]: in data set [1], the “inhibition of murine CTL serine esterase activity (in words)” value was “not and not, however, inhibited”; the “inhibition of serine esterase (in words)” value is recorded as “not inhibited”. Also, the inhibition at 500 µM in data set [3] is 4.6%.

Take `O=S(=O)(F)Cc1ccccc1` [PMSF, phenylmethylsulfonyl fluoride]: in the data set with G4 cells, the “added toxicity for G4 cells (51Cr release or reduced recovery of viable cells)” value is “no added toxicity”. The reduction of cytotoxicity result in data set [4] was “approximately 75%”. Also, in data set [1], the “Percent Inhibition of esterase activity” value stood at 97.2 and the “inhibition of murine CTL serine esterase activity (in words)” value is on record as “blocked completely; also recorded: inhibited; also recorded: completely inhibitable”. In data set [2] (nontoxic concentrations, G4 preincubated 30 minutes at 37° C.), the “inhibition of lysis of P815 cells by G4 cells (in words)” value was “clearly inhibits lysis”. Moreover, in data set [5], the “viability of CTLs (trypan blue exclusion) and targets (release of 51Cr)” value is “not affecting the viability”.
